Data on 21 molecules can be found in patent publication US9586914B2, “Modulators of C3a receptors” (THE UNIVERSITY OF QUEENSLAND, priority 2011, dated 2017).

Where two headings read alike, the source gives them in different places.

One test has as its target T1, C3aR (Homo sapiens, UniProt Q16581).
T1 construct: peripheral blood mononuclear cells were isolated from buffy coat (obtained from Australian Red Cross Blood Service, Kelvin Grove); endogenous in cells; host or cells: primary human monocyte-derived macrophages (HMDM) differentiated from CD14+ monocytes of donor buffy coat
T1 sequence (Q16581 1-482): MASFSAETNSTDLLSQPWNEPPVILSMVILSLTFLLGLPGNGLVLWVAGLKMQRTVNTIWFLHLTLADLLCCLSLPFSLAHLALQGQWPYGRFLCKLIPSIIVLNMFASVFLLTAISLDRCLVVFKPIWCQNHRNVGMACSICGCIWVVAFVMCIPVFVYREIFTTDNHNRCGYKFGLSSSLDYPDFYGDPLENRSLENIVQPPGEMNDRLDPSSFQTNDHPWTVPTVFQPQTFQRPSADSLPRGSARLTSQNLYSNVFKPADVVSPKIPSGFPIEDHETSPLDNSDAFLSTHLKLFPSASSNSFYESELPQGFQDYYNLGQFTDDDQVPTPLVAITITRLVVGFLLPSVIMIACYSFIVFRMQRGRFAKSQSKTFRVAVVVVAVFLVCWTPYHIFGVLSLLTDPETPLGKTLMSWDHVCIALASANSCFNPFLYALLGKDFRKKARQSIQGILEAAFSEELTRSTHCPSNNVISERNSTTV
In words: Calcium mobilization assay in HMDM (agonist/antagonist activity). It is filed as cell-based. The settings on record: for Emax at 10 µM: read-out: % agonist. The method, then: Harvested HMDM cells were washed with 0.9% NaCl solution by centrifugation at 2500 rpm for 5 min, followed by resuspension of the cell pellet with complete media. Cells were seeded at 5×10^4 cells/well in a 96-well black-wall, clear bottom plate (DKSH, Zurich), and left overnight to adhere at 37° C. On the day of the experiment, supernatant was removed and cells were incubated in dye loading buffer (Hank's Balanced Salt Solution (HBSS) with 4 μM Fluo-3, 25 μL pluronic acid, 1% fetal bovine serum (FBS) and 2.5 mM probenecid) for one hour at 37° C. Cells were then washed twice with HBSS and transferred to a Fluorostar spectrofluorimeter (BMG, Durham N.C.) for oxazole compound injection and fluorescence measurements.
Various compounds were examined in the calcium mobilization assay for agonist or antagonist activity compared to hC3a and to the known antagonist SB290157.
HMDMs were seeded into black-wall, clear bottom 96-well plates (Corning Incorporated, NY) at 50,000 cells/well and left to incubate at 37° C. with 5% CO2 overnight for cells to adhere. The medium was removed before being washed with the assay buffer (1×HBSS, 20 mM HEPES, 2.5 mM probenecid, pH 7.4). To each well was added 100 μL of dye-loading buffer made up of 12 mL calcium buffer, 1% FBS, 25 μL of Fluo-3 dye (final concentration of 4 μM) and 25 μL of 20% pluronic acid. The plate was covered in aluminium foil to protect the light-sensitive dye and left to incubate at 37° C. for 1 h. The dye-loading buffer was removed before the cells were washed with the assay buffer to remove excess loading dye. To each well was added 50 μL of fresh assay buffer before the plate was loaded into a FLIPR (Fluorescent Imaging Plate Reader) that can inject treatments and measure any calcium release. To generate agonist plots, calcium release was monitored for 300 seconds. To generate antagonist plots, calcium release was recorded for 900 seconds, which at the same time would allow incubation for the antagonists. After the initial incubation period, an agonist would be added and the response was recorded for 300 seconds. Intracellular release of calcium was recorded via fluorescence measurements at wavelength of 485 nm for excitation and 520 nm for emission.

A further test has as its target T2, C3a receptor (C3aR) (Homo sapiens, UniProt Q16581).
T2 construct: peripheral blood mononuclear cells were isolated from buffy coat (obtained from Australian Red Cross Blood Service, Kelvin Grove); endogenous in cells; host or cells: primary human monocyte-derived macrophages (HMDM) differentiated from CD14+ monocytes of donor buffy coat
T2 sequence (Q16581 1-482): T1 sequence (Q16581 1-482)
In words: Competitive binding with [^125I]-C3a in HMDM. Particulars: for remaining activity at 20 µM: 1 h, read-out: %[^125I]-C3a binding. An excerpt:
For HMDM, peripheral blood mononuclear cells were isolated from buffy coat (obtained from Australian Red Cross Blood Service, Kelvin Grove) using Ficoll-paque density centrifugation (GE Healthcare Bio-Science, Uppsala, Sweden). CD^14+ monocytes were positively selected using CD^14+ MACS magnetic beads (Miltenyi Biotech, Auburn, Calif., USA). […] Cells were harvested by gentle scraping in saline solution and replated for use on Day 7. […] Unbound radioactivity was removed by filtration through glass microfiber filters GF/B (Whatman Iner. […] The filter was washed 3 times with cold buffer (50 mM Tris-HCl) pH 7.4. […] The −log IC50 for each compound was calculated for separate experiments and express as an arithmetic mean standard error (SE). IC50 values were expressed as a geometric mean.

Where [1] appears, read: Table 9, Ca^2+ mobilization, HMDM.
Setting [2] is: Table 9, Ca^2+ mobilization, HMDM, read-out: EC50.
The mark [3] stands for this setting: Table 6, competitive binding with [^125I]-C3a, HMDM.
Setting [4] is: Table 6, competitive binding with [^125I]-C3a, HMDM, read-out: IC50 (converted).
Setting [5] is: Table 13, calcium release from HMDM, read-out: Antagonist Activity IC50.
Where [6] appears, read: Table 10, HMDM, read-out: Antagonist Activity Ca^2+ IC50.
The mark [7] stands for this setting: Table 8, HMDM, read-out: Receptor Binding Affinity ^125I IC50.
Setting [8] is: Table 10, HMDM, read-out: Agonist Activity EC50.

As for `Cc1oc([C@H](CC(C)C)NS(=O)(=O)c2ccccc2)nc1C(=O)N[C@@H](CCCNC(=N)N)C(=O)O` [Compound 40, Phenyl sulfonamide-Leucine-5-Methyl-Oxazole-Arginine], the Emax at 10 µM on C3aR was 103%. Moreover, the remaining activity at 20 µM on C3a receptor (C3aR) is 44%.
Consider `CC[C@H](C)[C@H](NC(=O)c1ccc(OC)cc1OC)c1nc(C(=O)N[C@@H](CCCNC(=N)N)C(=O)O)co1` [Compound 23, 2,4-Dimethoxybenzoic acid-isoleucine-oxazole-arginine-OH], for which, at C3aR (setting [1]), the “pEC50 ± SEM” value stood at 6.07 ± 0.13. In addition, on C3aR (setting [2]), the EC50 was determined as 849 nM. Moreover, on C3a receptor (C3aR) (setting [3]), the “pIC50 ± SEM” value was 6.06 ± 0.13. Besides, on C3a receptor (C3aR) (setting [4]), the IC50 was 872 nM.
For the molecule `Cc1oc([C@H](CC(C)C)NC(=O)c2cccnc2)nc1C(=O)N[C@@H](CCCNC(=N)N)C(=O)O` [Compound 30], at C3aR, the Emax at 10 µM was 68%. Moreover, the remaining activity at 20 µM on C3a receptor (C3aR) came out at 29%.
For `N=C(N)NCCC[C@H](NC(=O)c1ccc(C(c2ccccc2)c2ccccc2)s1)C(=O)NS(=O)(=O)c1ccccc1` [Compound 94, (S)-5-benzhydryl-N-(5-guanidino-1-oxo-1-(phenylsulfonamido)pentan-2-yl)thiophene-2-carboxamide], the IC50 is 300 nM at C3aR (setting [5]) and 35 nM at C3a receptor (C3aR) (setting [4]).
Regarding `COc1ccc(CCC(=O)N[C@@H](CC(C)C)c2nc(C(=O)N[C@@H](CCCNC(=N)N)C(=O)O)c(C)o2)cc1` [Compound 41, 3-(4-Methoxyphenyl)propionic acid-Leucine-5-Methyl-Oxazole-Arginine], the Emax at 10 µM on C3aR was determined as 44%. Further, the remaining activity at 20 µM at C3a receptor (C3aR) was 44%.
Consider `N=C(N)NCCC[C@H](NC(=O)c1noc(C(c2ccccc2)c2ccccc2)n1)C(=O)O` [Compound 68, 5-Diphenylmethyl-1-oxa-2,4-diazole-3-carboxyl-Arginine-OH], for which the IC50 at C3aR (setting [6]) came to 1200 nM; at C3a receptor (C3aR) (setting [7]), 447 nM.
As to `Cc1[nH]c([C@H](CC(C)C)NC(=O)c2c[nH]c3ccccc23)nc1C(=O)N[C@@H](CCCNC(=N)N)C(=O)O` [Compound 79, 3-Indole carboxylic acid-Leucine-5-methyl-imidazole-Arginine-OH], the EC50 on C3aR (setting [2]) came to 15 nM. For the same molecule, the IC50 at C3a receptor (C3aR) (setting [4]) was 12 nM.
As to `CC(C)C[C@H](NC(=O)Cc1ccc(F)cc1)c1nc(C(=O)N[C@@H](CCCNC(=N)N)C(=O)O)co1` [Compound 24, 2-(4-fluorophenyl)acetic acid-Leucine-Oxazole-Arginine-OH], on C3aR (setting [1]), the “pEC50 ± SEM” value is reported as 6.28 ± 0.16. Also, the EC50 on C3aR (setting [2]) worked out at 527 nM. At C3a receptor (C3aR) (setting [3]), the “pIC50 ± SEM” value turned out to be 6.99 ± 0.10. Moreover, the IC50 on C3a receptor (C3aR) (setting [4]) was 102 nM.
For the molecule `CC(C)(C)OC(=O)N[C@@H](CC1CCCCC1)c1nc(C(=O)N[C@@H](CCCNC(=N)N)C(=O)O)co1` [Compound 5, Boc-L-Cyclohexylalanine-Oxazole-Arg], at C3aR (setting [2]), the EC50 turned out to be 135 nM. The IC50 on C3a receptor (C3aR) (setting [4]) was 82 nM.
Regarding `Cc1nc([C@H](CC(C)C)NC(=O)OC(C)(C)C)sc1C(=O)N[C@@H](CCCNC(=N)N)C(=O)O` [Compound 82, Boc-Leucine-thiazole-Arginine-OH], the IC50 at C3aR (setting [5]) was 200 nM; at C3a receptor (C3aR) (setting [4]), 375 nM.
As to `N=C(N)NCCC[C@H](NC(=O)c1nc(C(c2ccccc2)c2ccccc2)[nH]c1-c1ccccc1)C(=O)O` [Compound 62, 2-Diphenylmethyl-4-phenyl imidazole-5-carboxyl-Arg-OH], the EC50 at C3aR (setting [8]) was above 100000 nM. Also, the IC50 came to 600 nM on C3aR (setting [6]) and 46 nM at C3a receptor (C3aR) (setting [7]).
Consider `CC[C@H](C)[C@H](NC(=O)c1cccc(OC)c1OC)c1nc(C(=O)N[C@@H](CCCNC(=N)N)C(=O)O)co1` [Compound 22, 2,3-dimethoxybenzoic acid-isoleucine-oxazole-arginine-OH], for which, on C3aR (setting [1]), the “EC50 (nM)” value is recorded as “∞” and the “pEC50 ± SEM” value is “∞”. Moreover, the “pIC50 ± SEM” value at C3a receptor (C3aR) (setting [3]) worked out at 6.15 ± 0.14. Also, the IC50 at C3a receptor (C3aR) (setting [4]) is 712 nM.
On to `CC[C@H](C)[C@H](NC(=O)c1ccccc1)c1nc(C(=O)N[C@@H](CCCNC(=N)N)C(=O)O)co1` [Compound 6, Benzoyl Isoleucine Oxazole Arginine-OH], for which the “pEC50 ± SEM” value at C3aR (setting [1]) was determined as 5.30 ± 0.18. At C3aR (setting [2]), the EC50 came out at 5000 nM. In addition, the “pIC50 ± SEM” value on C3a receptor (C3aR) (setting [3]) is 7.58 ± 0.07. For the same molecule, the IC50 on C3a receptor (C3aR) (setting [4]) is 26 nM.
Take `COc1ccc(CC(=O)N[C@@H](CC(C)C)c2nc(C(=O)N[C@@H](CCCNC(=N)N)C(=O)O)c(C)o2)cc1` [Compound 39, 4-Methoxy-phenylacetic acid-Leucine-5-Methyl-Oxazole-Arginine]: the Emax at 10 µM on C3aR worked out at 26%. The remaining activity at 20 µM at C3a receptor (C3aR) turned out to be 40%.
In the case of `Cc1oc([C@H](CC(C)C)NC(=O)C2CCCCC2)nc1C(=O)N[C@@H](CCCNC(=N)N)C(=O)O` [Compound 32, Cyclohexane carboxylic acid-Leucine-5-Methyl-Oxazole-Arginine], at C3aR, the Emax at 10 µM came to 107%. For the same molecule, the remaining activity at 20 µM at C3a receptor (C3aR) came to 39%.
In the case of `N#CN=C(N)NCCC[C@H](NC(=O)c1ccc(C(c2ccccc2)c2ccccc2)s1)C(=O)NS(=O)(=O)c1ccccc1` [Compound 96, (S)-5-benzhydryl-N-(5-(2-cyanoguanidino)-1-oxo-1-(phenylsulfonamido)pentan-2-yl)thiophene-2-carboxamide], the values for the IC50 at C3aR (setting [5]) and at C3a receptor (C3aR) (setting [4]) were 2000 nM and 888 nM, respectively.
Regarding `Cc1oc([C@H](CC(C)C)NC(=O)NCc2ccccc2)nc1C(=O)N[C@@H](CCCNC(=N)N)C(=O)O` [Compound 46, Benzylisocyanate-Leucine-5-Methyl-Oxazole-Arginine], the Emax at 10 µM on C3aR was 50%. Further, at C3a receptor (C3aR), the remaining activity at 20 µM was found to be 61%.
The corresponding values for `Cc1oc([C@H](CC(C)C)NC(=O)CC2CCCCC2)nc1C(=O)N[C@@H](CCCNC(=N)N)C(=O)O` [Compound 33, Cyclohexyl acetic acid-Leucine-5-Methyl-Oxazole-Arginine] are 69% and 26%.
The corresponding values for `Cc1oc([C@H](CC(C)C)NC(=O)c2cc3ccccc3o2)nc1C(=O)N[C@@H](CCCNC(=N)N)C(=O)O` [Compound 26, Benzofuran carboxylic acid-Leucine-5-Methyl-Oxazole-Arginine] are 84% and 19%.
Turning to `N=C(N)NCCC[C@H](NC(=O)c1ccc(C(c2ccccc2)c2ccccc2)s1)C(=O)O` [Compound 60, 5-Diphenylmethyl-thiophene-2-carboxyl-Arg-OH], on C3aR (setting [8]), the EC50 was above 100000 nM. Besides, the IC50 is 70 nM on C3aR (setting [6]); 140 nM at C3a receptor (C3aR) (setting [7]); 63.1 nM on C3a receptor (C3aR) (Table 14, binding affinity for C3aR on HMDM, read-out: -Log IC50 (converted)).
For the molecule `CC[C@H](C)[C@H](NC(=O)C1CCCc2ccccc21)c1nc(C(=O)N[C@@H](CCCNC(=N)N)C(=O)O)co1` (stereo partly shown) [Compound 21, Tetrahydronapthalene-isoleucine-oxazole-arginine-OH], the “pEC50 ± SEM” value on C3aR (setting [1]) is recorded as 6.62 ± 0.28. Further, the EC50 at C3aR (setting [2]) turned out to be 240 nM. Besides, the “pIC50 ± SEM” value on C3a receptor (C3aR) (setting [3]) came to 6.98 ± 0.11. Also, the IC50 on C3a receptor (C3aR) (setting [4]) was 104 nM.
